This is an account of results in patent EP4775574A1, “FURAN RING-CONTAINING COMPOUND, PHARMACEUTICAL COMPOSITION THEREOF, AND USE THEREOF” (Wuhan Xirui Pharmaceutical Technology Co., Ltd, priority 2023, dated 2025).

The target of one data set is Nav1.2 (Homo sapiens, UniProt Q99250). As to the kind of experiment: Sodium channel selectivity test, patch-clamp, Nav1.2. Format: cell-based. Conditions: read-out: Nav1.2 Inhibition rate (%). The source says: (§1) Test Example 3: Selectivity test of the compounds of the present disclosure on sodium channels • 1. Experimental objective: The effects of the compounds on the current of the voltage-gated sodium channel (NaV) subtypes 1.1-1.7 were detected by patch-clamp technique • 2. Experimental materials and instruments • 2.1 Cell lines: CHO/HEK293 cell lines stably expressing Nav1.1-1.7 sodium channels, constructed in-house by the laboratory of Beijing ICE Bioscience Co., Ltd., (Reference: Jarvis MF, Honore P, Shieh CC, Chapman M, Joshi S, Zhang XF, Kort M, Carroll W, Marron B, Atkinson R, Thomas J, Liu D, Krambis M, Liu Y, McGaraughty S, Chu K, Roeloffs R, Zhong C, Mikusa JP, Hernandez G, Gauvin D, Wade C, Zhu C, Pai M, Scanio M, Shi L, Drizin I, Gregg R, Matulenko M, Hakeem A, Gross M, Johnson M, Marsh K, Wagoner PK, Sullivan JP, Faltynek CR, Krafte DS. A-803467, a potent and selective Nav1.8 sodium channel blocker, attenuates neuropathic and inflammatory pain in the rat. Proc Natl Acad Sci U S A. 2007 May 15;104(20):8520-5. doi: 10.1073/pnas.0611364104. Epub 2007 May 2. PMID: 17483457; PMCID: PMC1895982.), gene information Nav1.1: NM_006920; Nav1.2: NM_001040142; Nav1.3: NM_006922; Nav1.4: NM_000334; Nav1.5: NM198056; Nav1.6: NM014191; Nav1.7: […]. • 2.2 Compounds: Dissolved in DMSO, with sample concentration prepared at 30 µM. • 3. Experimental methods • 3.1 Cell culture • (1) Maintenance medium: CHO cells were cultured in HAM'S/F-12 medium containing 10% fetal bovine serum, 100 µg/mL Zeocin, and 10 µg/mL Blasticidin, under conditions of 37°C incubation temperature and 5% carbon dioxide concentration. HEK-293 cells were cultured in DMEM medium containing 10% fetal bovine serum and 800 µg/mL G418; the culture temperature was 37°C, and the carbon dioxide concentration was 5%. • (2) Cell passage: The old medium was removed, and the cells were washed once with PBS, then 1 mL of 0.25%-Trypsin-EDTA solution was added and incubated at 37°C for approximately 1.5 min. When the cells were detached from the bottom of the dish, about 5 mL of preheated complete medium at 37°C was added. […]

Another data set concerns the target Nav1.4 (Homo sapiens, UniProt P35499). The data set is described as follows: Sodium channel selectivity test, patch-clamp, Nav1.4. Conditions: read-out: Nav1.4 Inhibition rate (%). The format is cell-based.
Excerpt: as §1
Background: In patch-clamp work, channel activity is measured electrically.

Another data set deals with Nav1.6 (Homo sapiens, UniProt Q9UQD0). As to the kind of experiment: Sodium channel selectivity test, patch-clamp, Nav1.6. The format is cell-based. Conditions: read-out: Nav1.6 Inhibition rate (%).
Excerpt: as §1

Data set [1] in a line: Pharmacokinetic determination in SD rats. The format is in vivo. The note with it: rat, po, gavage 10 mg/kg, plasma; for half-life: read-out: Half-life t1/2 (converted); for Cmax: read-out: Peak concentration Cmax; for Tmax: read-out: Time to peak Tmax. The procedure: SD rats were used as test animals to study the pharmacokinetic behavior in rat plasma after oral administration of the compound example of the present disclosure at a dose of 10 mg/kg.
Male SPF-grade SD rats, with body weight (200 ± 20) g.
Drug preparation: The drug concentration was prepared as 1 mg/mL, and the preparation solvent was Tween80 + 0.5% MC (v/v 1:99).
Male SPF-grade SD rats were administered by gavage after adaptive feeding for 3-4 days, with an administration dose of 10 mg/kg and an administration volume of 10 mL/kg.
Blood samples were collected from rats before administration (0 h) and after administration at 0.5 h, 1 h, 1.5 h, 2 h, 3 h, 4 h, 6 h, 8 h, 10 h, 12 h, and 24 h. Blood, approximately 0.2 mL, was collected by retro-orbital puncture and placed into EDTA-K2 anticoagulant tubes with labels. After blood collection, the tubes were gently and completely inverted three times to mix with the anticoagulant. The samples were then immediately placed in an ice-water bath and centrifuged at 4500 rpm for 10 min at 4°C. After centrifugation, the plasma was promptly aliquoted into EP tubes with corresponding labels and stored in a -80°C freezer.
After administration, 20 µL of rat plasma was taken and placed into a 96-deep-well plate pre-filled with 20 µL of internal standard working solution. Methanol (400 µL) as the precipitating agent was added, vortexed for 10 min, and centrifuged at 4000 rpm for 15 min. A supernatant of 200 µL was transferred into another 96-deep-well plate pre-filled with 200 µL of ultrapure water, vortexed for 5 min, and centrifuged at 4000 rpm for 3 min. A supernatant of 5 µL was taken for LC-MS/MS analysis of plasma drug concentration.
The main pharmacokinetic parameters were calculated by WinNonlin 7.0, and the pharmacokinetic experimental results of rats are shown in Table 4 below. Table 4: Pharmacokinetic experimental results of rats

For the next data set, the target named is Nav1.3 (Homo sapiens, UniProt Q9NY46). As to the kind of experiment: Sodium channel selectivity test, patch-clamp, Nav1.3. The format is cell-based. The note with it: read-out: Nav1.3 Inhibition rate (%).
Excerpt: as §1

The next data set addresses Nav1.7 (Homo sapiens, UniProt Q15858). The data set is described as follows: Sodium channel selectivity test, patch-clamp, Nav1.7. Format: cell-based. The note with it: read-out: Nav1.7 Inhibition rate (%).
Excerpt: as §1

The target of another data set is Nav1.1 (Homo sapiens, UniProt P35498). The data set is described as follows: Sodium channel selectivity test, patch-clamp, Nav1.1. Conditions: read-out: Nav1.1 Inhibition rate (%). The format is cell-based.
Excerpt: as §1

Molecules are shown by their SMILES. Where two headings read alike, the source gives them in different places.

Nav1.4, sequence (P35499 whole entry): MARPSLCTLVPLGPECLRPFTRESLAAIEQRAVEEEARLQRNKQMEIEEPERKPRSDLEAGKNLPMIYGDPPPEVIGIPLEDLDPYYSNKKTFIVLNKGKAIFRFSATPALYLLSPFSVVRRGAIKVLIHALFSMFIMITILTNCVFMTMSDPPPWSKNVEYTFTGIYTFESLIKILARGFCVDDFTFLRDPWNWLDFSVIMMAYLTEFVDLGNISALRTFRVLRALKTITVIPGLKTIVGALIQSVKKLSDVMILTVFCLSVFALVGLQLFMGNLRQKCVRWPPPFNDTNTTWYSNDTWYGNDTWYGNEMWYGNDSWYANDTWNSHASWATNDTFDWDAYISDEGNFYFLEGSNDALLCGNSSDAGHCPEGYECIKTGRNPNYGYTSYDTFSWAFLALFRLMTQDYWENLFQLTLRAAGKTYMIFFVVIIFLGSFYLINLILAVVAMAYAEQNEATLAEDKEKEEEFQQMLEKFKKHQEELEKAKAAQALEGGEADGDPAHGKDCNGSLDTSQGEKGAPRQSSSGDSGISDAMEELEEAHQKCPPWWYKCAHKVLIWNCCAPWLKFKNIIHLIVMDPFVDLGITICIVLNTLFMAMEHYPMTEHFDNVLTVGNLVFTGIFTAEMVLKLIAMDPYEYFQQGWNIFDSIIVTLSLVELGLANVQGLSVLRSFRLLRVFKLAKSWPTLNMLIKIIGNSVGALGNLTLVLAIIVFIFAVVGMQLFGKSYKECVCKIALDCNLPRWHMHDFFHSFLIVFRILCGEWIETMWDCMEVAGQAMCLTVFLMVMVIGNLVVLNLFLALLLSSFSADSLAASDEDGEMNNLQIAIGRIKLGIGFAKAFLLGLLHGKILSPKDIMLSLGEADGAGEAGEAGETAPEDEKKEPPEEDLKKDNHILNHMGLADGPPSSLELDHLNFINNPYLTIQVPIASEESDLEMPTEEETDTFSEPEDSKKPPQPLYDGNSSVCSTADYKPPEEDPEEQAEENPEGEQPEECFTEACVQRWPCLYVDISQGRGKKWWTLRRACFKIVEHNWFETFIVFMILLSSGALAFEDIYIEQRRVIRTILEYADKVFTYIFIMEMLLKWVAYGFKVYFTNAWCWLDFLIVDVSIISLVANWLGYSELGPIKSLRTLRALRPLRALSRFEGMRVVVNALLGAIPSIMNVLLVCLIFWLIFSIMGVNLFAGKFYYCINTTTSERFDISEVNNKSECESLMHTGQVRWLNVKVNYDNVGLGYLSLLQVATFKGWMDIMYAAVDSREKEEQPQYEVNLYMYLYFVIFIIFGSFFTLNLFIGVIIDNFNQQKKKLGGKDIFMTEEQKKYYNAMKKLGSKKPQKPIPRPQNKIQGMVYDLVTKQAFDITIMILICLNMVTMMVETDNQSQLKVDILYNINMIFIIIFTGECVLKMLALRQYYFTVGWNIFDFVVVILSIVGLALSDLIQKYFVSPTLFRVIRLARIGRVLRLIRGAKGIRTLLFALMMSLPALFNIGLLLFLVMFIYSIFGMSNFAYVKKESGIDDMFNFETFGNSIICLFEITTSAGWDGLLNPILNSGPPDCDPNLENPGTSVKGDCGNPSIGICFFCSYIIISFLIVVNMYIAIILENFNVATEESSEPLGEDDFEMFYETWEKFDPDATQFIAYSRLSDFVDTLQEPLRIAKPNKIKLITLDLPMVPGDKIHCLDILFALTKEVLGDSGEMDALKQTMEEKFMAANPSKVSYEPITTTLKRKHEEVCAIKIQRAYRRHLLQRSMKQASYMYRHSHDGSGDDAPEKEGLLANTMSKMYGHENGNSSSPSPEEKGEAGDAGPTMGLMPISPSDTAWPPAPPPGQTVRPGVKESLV
Nav1.3, sequence (Q9NY46 1-2000 isoform Q9NY46-3): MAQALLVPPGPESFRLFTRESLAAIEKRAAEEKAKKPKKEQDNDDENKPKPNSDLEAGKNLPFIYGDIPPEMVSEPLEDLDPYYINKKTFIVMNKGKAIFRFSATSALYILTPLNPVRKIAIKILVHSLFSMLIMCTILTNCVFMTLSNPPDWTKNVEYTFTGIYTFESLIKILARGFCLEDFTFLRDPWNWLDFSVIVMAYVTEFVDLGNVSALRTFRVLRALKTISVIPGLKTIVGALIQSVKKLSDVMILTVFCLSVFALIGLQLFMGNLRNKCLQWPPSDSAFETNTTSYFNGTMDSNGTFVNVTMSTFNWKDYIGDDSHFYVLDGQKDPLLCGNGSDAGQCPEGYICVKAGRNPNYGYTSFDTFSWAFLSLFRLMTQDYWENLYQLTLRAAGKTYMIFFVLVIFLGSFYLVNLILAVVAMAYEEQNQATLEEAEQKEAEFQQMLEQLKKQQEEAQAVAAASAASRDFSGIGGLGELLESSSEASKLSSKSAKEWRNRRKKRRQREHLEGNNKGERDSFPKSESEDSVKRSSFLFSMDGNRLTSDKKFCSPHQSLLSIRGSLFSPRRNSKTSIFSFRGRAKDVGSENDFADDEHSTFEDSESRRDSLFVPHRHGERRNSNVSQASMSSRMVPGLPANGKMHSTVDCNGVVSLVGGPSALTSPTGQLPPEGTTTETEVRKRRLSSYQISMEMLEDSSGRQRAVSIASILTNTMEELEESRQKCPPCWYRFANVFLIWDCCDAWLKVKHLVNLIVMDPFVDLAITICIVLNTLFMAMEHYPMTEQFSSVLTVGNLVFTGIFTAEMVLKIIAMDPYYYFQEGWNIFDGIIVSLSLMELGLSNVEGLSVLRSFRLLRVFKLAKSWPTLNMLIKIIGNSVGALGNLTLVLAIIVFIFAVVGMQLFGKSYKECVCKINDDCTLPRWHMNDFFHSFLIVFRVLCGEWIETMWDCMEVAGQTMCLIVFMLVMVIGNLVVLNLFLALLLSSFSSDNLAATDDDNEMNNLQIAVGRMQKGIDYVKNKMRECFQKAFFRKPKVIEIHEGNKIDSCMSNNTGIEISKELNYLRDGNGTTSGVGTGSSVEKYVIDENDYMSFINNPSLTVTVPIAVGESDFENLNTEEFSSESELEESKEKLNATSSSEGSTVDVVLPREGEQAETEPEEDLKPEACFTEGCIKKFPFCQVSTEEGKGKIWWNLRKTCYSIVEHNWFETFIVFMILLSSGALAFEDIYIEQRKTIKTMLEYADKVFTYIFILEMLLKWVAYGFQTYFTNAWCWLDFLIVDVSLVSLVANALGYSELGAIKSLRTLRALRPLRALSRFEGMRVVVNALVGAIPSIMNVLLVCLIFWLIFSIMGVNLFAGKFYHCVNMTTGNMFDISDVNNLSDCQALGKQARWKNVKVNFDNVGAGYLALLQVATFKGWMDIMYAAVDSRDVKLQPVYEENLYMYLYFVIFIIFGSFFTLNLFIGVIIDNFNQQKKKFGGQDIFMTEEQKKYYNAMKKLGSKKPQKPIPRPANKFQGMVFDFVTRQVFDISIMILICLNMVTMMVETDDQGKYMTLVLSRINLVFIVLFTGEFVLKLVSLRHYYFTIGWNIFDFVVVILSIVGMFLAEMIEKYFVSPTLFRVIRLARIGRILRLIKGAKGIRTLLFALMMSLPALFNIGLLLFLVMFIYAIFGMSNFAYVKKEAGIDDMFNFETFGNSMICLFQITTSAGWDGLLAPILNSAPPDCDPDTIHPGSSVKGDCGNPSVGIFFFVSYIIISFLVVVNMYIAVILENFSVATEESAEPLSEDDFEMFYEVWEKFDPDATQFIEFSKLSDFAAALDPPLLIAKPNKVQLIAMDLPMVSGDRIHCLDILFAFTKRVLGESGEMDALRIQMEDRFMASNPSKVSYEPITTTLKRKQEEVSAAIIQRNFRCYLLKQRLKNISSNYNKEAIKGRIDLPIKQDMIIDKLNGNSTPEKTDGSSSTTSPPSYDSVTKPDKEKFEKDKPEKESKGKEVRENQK

In the case of `COCCOc1c([C@H]2[C@H](C(=O)Nc3ccc(F)c(C(=N)NO)c3)O[C@@](C)(C(F)(F)F)[C@H]2C)ccc(F)c1F` [Example 10], the inhibition (usually the relative decrease from the control value, in per cent) at 30 µM at Nav1.2 was found to be 32.8%; at Nav1.4, 75.4%; at Nav1.6, 36%; at Nav1.3, 28.6%; at Nav1.7 it was 20.8%; on Nav1.1, 28.4%. For the same molecule, the AUC(0-t) at 24 h in data set [1] (in vivo, read-out: Area under the curve AUC0-t) was determined as 4650 ± 1600 ng·h/mL. Besides, the half-life in data set [1] (in vivo) was 96 ± 16.2 min. In addition, in data set [1] (in vivo), the Cmax was found to be 1240 ± 326 ng/mL. Also, the Tmax (usually the time at which the peak concentration occurs) in data set [1] (in vivo) was 52.8 ± 15 min.
For `C[C@H]1[C@@H](c2ccc(F)c(F)c2OC2COC2)[C@H](C(=O)Nc2ccc(F)c(C(=N)NO)c2)O[C@@]1(C)C(F)(F)F` [Example 11], the inhibition at 30 µM on Nav1.2 stood at 16%; at Nav1.4 it was 8.45%; on Nav1.6, 19.5%; at Nav1.3, 21.7%; at Nav1.7 it was 14.8%; at Nav1.1, 1.96%. The AUC(0-t) in data set [1] (read-out: Area under the curve AUC0-t) was 2080 ± 201 ng·h/mL. Further, the half-life in data set [1] is 51 ± 4.2 min. Moreover, the Cmax in data set [1] was found to be 1040 ± 260 ng/mL. The time to peak (Tmax) in data set [1] was found to be 45 ± 30 min.
Take `COc1c([C@H]2[C@H](C(=O)Nc3ccnc(C(N)=O)c3)O[C@@](C)(C(F)(F)F)[C@H]2C)ccc(F)c1F` [Reference compound, reference compound]: the inhibition at 30 µM on Nav1.2 was 53.6%; on Nav1.4 it was 83.6%; at Nav1.6, 42.9%; at Nav1.3, 63.4%; at Nav1.7, 11.1%; at Nav1.1 it was 57.7%. In addition, the AUC(0-t) in data set [1] (male, read-out: Area under the curve AUC0-t) came to 608 ± 362 ng·h/mL. In data set [1] (male), the half-life was 79.2 ± 10.2 min. In addition, the Cmax in data set [1] (male) came to 216 ± 124 ng/mL. For the same molecule, the Tmax in data set [1] (male) is 37.8 ± 15 min.
